Measured values: paper PMC8573170 (The Journal of Biological Chemistry, 2021)
pKd: −log10 of the molar value. Entries after “also recorded” stand apart in the source; their conditions may differ.

How the values were obtained:
thrombin = thrombin (Homo sapiens, UniProt P00734); assay: Cleavage of peptides by thrombin in solution, measured by mass spectrometry; type: in vitro ADME; conditions: 25 μM peptide, 1 μM thrombin (25:1); 2 h at 37 °C; 25 mM Tris-HCl pH 8.0, 150 mM NaCl; ESI-MS
Procedure: To detect cleavage of XC-42 and XC-43 by thrombin in solution, we incubated each peptide separately at a concentration of 25 μM in the presence of thrombin (1 μM) in 25 mM Tris-HCl pH 8.0 containing 150 mM NaCl for 2 h at 37 °C. Reactions were stopped by adjusting the pH to 2.0 with the addition of TFA. A Q Exactive plus (Thermo Fisher Scientific) mass spectrometer was used to carry out ESI-MS experiments. The instrument was operated at a resolution of 280k, spray voltage of 3.5 kV, and capillary temperature of 250 °C. Samples were desalted by C18 Zip-tip (Millipore) and dissolved in 200 μl of reconstitution buffer (50% acetonitrile, 49% water, 1% TFA). Samples were introduced using a syringe pump (Thermo Fisher Scientific) with a flow rate of 5 μl/min. Xtract was used to deconvolute the raw data.

α-thrombin [1] = biological target: T1, α-thrombin (Homo sapiens, UniProt P00734); assay: SPR, peptides passed over immobilized thrombin; type: binding; conditions: thrombin amine-coupled on CM5 chip; peptides 0-50 nM; single cycle; compared with biotinylated XC-43 surface
Procedure: Evaluation of binding kinetics by SPR was performed using a Biacore T200 instrument. Synthetic XC-43 containing covalently linked biotin at the N-terminal amino group and the ε-amino group of Lys 1 was bound to a surface of immobilized neutravidin on a CM-5 chip. After conditioning, human α-thrombin was passed over the surface, and kinetic data were collected in single cycle mode using a running buffer of 10 mM HEPES pH 7.4, 150 mM NaCl (HBS). The data were fit to a 1:1 Langmuir binding model. Binding was also analyzed after immobilization of α-thrombin on a CM-5 chip using amine coupling methodology. XC-42 and XC-43 were passed over the surface, and data were collected in the single cycle mode using HBS as a running buffer. The data were fit to a 1:1 binding model as described above.
Figure S2: Surface pl asmon resonanc e in the single cycle mode of (A) XC -42 or (B) XC-43 binding to thrombin immobilized on a CM5 chip surface. Exp erimental data are shown as a solid grey line while the calculated fit is shown as a dashed line (C) Th e kinetic param eters w ere estimated by fitting a 1:1 binding model. Peptide concentrations for each experiment were, 0 nM, 6.25 nM, 12.5 nM, 25 nM, 50 nM.
(§1) (1 picture or pasted object on this page, not shown here)

α-thrombin [2] = assay: XC-43-thrombin complex assembled in 10 mM HEPES pH 7.4, crystallized in 0.2 M magnesium acetate, 9% PEG 8000 (measured pH ∼ 7); conditions: human, room temperature
Wistar rats [3] = assay: Ex vivo aPTT of plasma from treated rats; type: in vivo; conditions: rat; heparin 50 μg/kg intraperitoneal; 2 and 12 h posttreatment
Procedure: A total number of 24 animals were randomly distributed into four groups (n= 6 per group) and injected intraperitoneally (300 μl) with: (i) PBS; (ii) heparin (50 μg/kg); (iii) XC-43 (0.5 mg/kg); or (iv) XC-43 (1.0 mg/kg). Animals were anesthetized with isoflurane (5% for induction; 2% for maintenance) and blood samples were obtained at 0, 2, 12, and 24 h posttreatment in 1:10 (v/v) 3.8% trisodium citrate. The PPP was obtained by blood centrifugation (1500g for 10 min) and the aPTT evaluated using the APTT ellagic kit (Wiener Lab). Clot formation was monitored at 650 nm using a SpectraMax M3 (Molecular Devices).

α-thrombin [4] = assay: thrombin (1 μM) in 25 mM Tris-HCl pH 8.0 containing 150 mM NaCl; conditions: human, 37 °C, up to 2 h
α-thrombin [5] = biological target: T1, α-thrombin; assay: Kinetic assay of thrombin-catalyzed hydrolysis of S-2238 (Morrison equation); type: biochemical; design: Kinetic assays were performed using human α-thrombin (Enzyme Research Laboratories); purchased Enzyme Research Laboratories; conditions: summary statement in the abstract; fast, tight-binding inhibitor; read-out: dissociation constant for thrombin (abstract)
Procedure: All reactions were performed at 30 °C. Kinetic assays were performed using human α-thrombin (Enzyme Research Laboratories) and chromogenic substrate S-2238 (Diapharma) using a Thermomax micro plate reader (Molecular Devices). Reactions were performed in 100 μl of TBS buffer (10 mM Tris, 0.15 M NaCl, pH 7.4) containing 0.01% Tween-20. XC-43 (0–3.2 nM) or 0 to 15 pairs of X.cheopis salivary glands were incubated with human α-thrombin (0.2 nM) at 30 °C for 5 min followed by addition of S-2238 (50, 100, 200, 400, and 600 μM). Reactions were followed for 30 min. The inhibitory constants were determined by fitting the nonlinear regression model according to the Morrison’s equation ([43]) using the GraphPad Prism software (GraphPad Software, Inc).

Wistar rats [6] = assay: Tail bleeding assay; type: in vivo; conditions: rat; for increased tail bleeding vs PBS-injected animals: 30 min posttreatment, absorbance 540 nm
Procedure: The tail bleeding assay was performed with 24 animals kept at 37 °C under general anesthesia with isoflurane vaporized in 100% oxygen at a dose of 5% for induction and 2% for maintenance (flow rate of 0.5 l/min). These animals were randomly distributed into four groups (n = 6 per group) and injected intraperitoneally (300 μl) with: (i) PBS; (ii) heparin (50 μg/kg); (iii) XC-43 (0.5 mg/kg); or (iv) XC-43 (1 mg/kg). After 30 min posttreatment, a medium depth incision was performed at 3 mm from the tip of the animals' tail; the tail was submerged in a test tube containing saline solution (4 ml) and maintained for 30 min. Then, samples from saline solution were appropriately diluted and the absorbance at 540 nm was determined spectrophotometrically.

α-thrombin [7] = biological target: T1, α-thrombin; assay: Isothermal titration calorimetry; design: Kinetic assays were performed using human α-thrombin (Enzyme Research Laboratories); purchased Enzyme Research Laboratories; conditions: using a maximum c value of 500; single binding site; read-out: KD, ITC bound
Procedure: Isothermal titration calorimetric experiments were performed with a Microcal VP-ITC instrument at 30 °C. Human α-thrombin and XC-43 were dissolved in PBS, pH 7.4 at concentrations of 1 μM and 10 μM, respectively. XC-43 was added as 10-μl injections to the protein sample contained in the calorimeter cell. Calculated injection enthalpies were fit to a single-site binding model in the Microcal data evaluation software.
Figure S3: Analysis of XC-43 binding with thrombin using isothermal titration calorimetry. XC-43 (10 µM) was added to a solution of thrombin (1 µM) in a series of 10 µl injections. Heats were record ed on a VP -IT C MicroCalorimeter and the data fitted using a singl e binding site model. The high affinity makes the magnitude […]
association constant (K) must be ≥ 5 × 10 8 M −1 ( KD ≤ 2 nM ) with a single peptide binding site per thrombin […]
as §1

CC[C@H](C)[C@H](NC(=O)[C@@H]1CCCN1C(=O)[C@H](CCC(=O)O)NC(=O)[C@H](CCSC)NC(=O)CNC(=O)[C@H](CC(N)=O)NC(=O)CNC(=O)CNC(=O)[C@H](CCC(=O)O)NC(=O)CNC(=O)[C@H](CCCNC(=N)N)NC(=O)[C@H](CCC(N)=O)NC(=O)[C@H](Cc1ccc(O)cc1)NC(=O)[C@H](CC(C)C)NC(=O)[C@H](CCCCN)NC(=O)[C@@H]1CCCN1C(=O)[C@H](CCC(N)=O)NC(=O)[C@H](C)NC(=O)[C@@H](NC(=O)[C@H](CCC(=O)O)NC(=O)[C@H](C)NC(=O)[C@H](CCC(=O)O)NC(=O)[C@@H](NC(=O)[C@H](CCC(=O)O)NC(=O)[C@H](CS)NC(=O)[C@H](CCC(=O)O)NC(=O)[C@H](CC(=O)O)NC(=O)[C@H](CC(C)C)NC(=O)[C@H](CC(N)=O)NC(=O)[C@H](CO)NC(=O)[C@H](CCC(N)=O)NC(=O)[C@H](C)NC(=O)[C@@H](NC(=O)[C@H](CCC(=O)O)NC(=O)[C@H](C)NC(=O)[C@H](CCC(=O)O)NC(=O)[C@@H](NC(=O)[C@@H]1CCCN1C(=O)[C@@H](N)CCCCN)C(C)C)C(C)C)C(C)C)C(C)C)C(=O)N1CCC[C@H]1C(=O)N[C@@H](CCC(=O)O)C(=O)N[C@@H](CC(=O)O)C(=O)N[C@H](C(=O)N[C@@H](CC(C)C)C(=O)N[C@@H](CC(N)=O)C(=O)N[C@@H](CCC(=O)O)C(=O)N[C@@H](C)C(=O)N[C@@H](CC(C)C)C(=O)N[C@@H](CC(N)=O)C(=O)N[C@@H](C)C(=O)O)C(C)C [XC-42]
cleavage by thrombin in solution (in words) (thrombin): majority of the peptide was uncleaved; also recorded: cleaved to a relatively small degree | dissociation constants on immobilized thrombin, SPR (in words) (α-thrombin [1]): elevated dissociation constants

KPVEAEVAQPKLYQRGEGGNGMEPIPEDVLNEALNA
not cleaved (α-thrombin [2]): no evidence of even partial cleavage

heparin
increase of ex vivo aPTT in relation to PBS-treated animals (Wistar rats [3]): twofold

KPVEAEVAQSNLDECEVEAEVAQPKLYQRGEGGNGMEPIPEDVLNEALNA
fragment found (α-thrombin [4]): LYQRGEGGNGMEPIPEDVLNEALNA

CC[C@H](C)[C@H](NC(=O)[C@@H]1CCCN1C(=O)[C@H](CCC(=O)O)NC(=O)[C@H](CCSC)NC(=O)CNC(=O)[C@H](CC(N)=O)NC(=O)CNC(=O)CNC(=O)[C@H](CCC(=O)O)NC(=O)CNC(=O)[C@H](CCCNC(=N)N)NC(=O)[C@H](CCC(N)=O)NC(=O)[C@H](Cc1ccc(O)cc1)NC(=O)[C@H](CC(C)C)NC(=O)[C@H](CCCCN)NC(=O)[C@@H]1CCCN1C(=O)[C@H](CCC(N)=O)NC(=O)[C@H](C)NC(=O)[C@@H](NC(=O)[C@H](CCC(=O)O)NC(=O)[C@H](C)NC(=O)[C@H](CCC(=O)O)NC(=O)[C@@H](NC(=O)[C@@H]1CCCN1C(=O)[C@@H](N)CCCCN)C(C)C)C(C)C)C(=O)N1CCC[C@H]1C(=O)N[C@@H](CCC(=O)O)C(=O)N[C@@H](CC(=O)O)C(=O)N[C@H](C(=O)N[C@@H](CC(C)C)C(=O)N[C@@H](CC(N)=O)C(=O)N[C@@H](CCC(=O)O)C(=O)N[C@@H](C)C(=O)N[C@@H](CC(C)C)C(=O)N[C@@H](CC(N)=O)C(=O)N[C@@H](C)C(=O)O)C(C)C [XC-43]
cleavage by thrombin in solution (in words) (thrombin): majority of the peptide was uncleaved; also recorded: largely intact; also recorded: cleaved to a relatively small degree | cleavage fragment ion intensity relative to that of the uncleaved peptide (thrombin): less than 15% | pKd (α-thrombin [5]): > 11.00 | increased tail bleeding vs PBS-injected animals (Wistar rats [6]; 0.5 mg/kg intraperitoneal): 3.2 fold | increased tail bleeding vs PBS-injected animals (Wistar rats [6]; 1 mg/kg intraperitoneal): 7.6 fold | increased tail bleeding vs heparin-treated animals (Wistar rats [6]; 1 mg/kg intraperitoneal, heparin 50 μg/kg): 2.3 fold | pKd (α-thrombin [7]): ≥ 8.70 | dissociation constants on immobilized thrombin, SPR (in words) (α-thrombin [1]): elevated dissociation constants
